Reference: publication PMC12155096 (International Journal of Molecular Sciences, 2025)
Counter-ions that a name gives are not always drawn. Like-named read-outs stand apart in the source and are kept apart here.

Key:
human CYP2C19 [1] = target: T1, human CYP2C19 (Homo sapiens, UniProt P33261); experiment: biochemical
human CYP2C9 [2] = target: T2, human CYP2C9 (Homo sapiens, UniProt P11712); experiment: biochemical
human CYP1A2 [3] = target: T3, human CYP1A2 (Homo sapiens, UniProt P05177); experiment: biochemical
T3 sequence (P05177 1-516): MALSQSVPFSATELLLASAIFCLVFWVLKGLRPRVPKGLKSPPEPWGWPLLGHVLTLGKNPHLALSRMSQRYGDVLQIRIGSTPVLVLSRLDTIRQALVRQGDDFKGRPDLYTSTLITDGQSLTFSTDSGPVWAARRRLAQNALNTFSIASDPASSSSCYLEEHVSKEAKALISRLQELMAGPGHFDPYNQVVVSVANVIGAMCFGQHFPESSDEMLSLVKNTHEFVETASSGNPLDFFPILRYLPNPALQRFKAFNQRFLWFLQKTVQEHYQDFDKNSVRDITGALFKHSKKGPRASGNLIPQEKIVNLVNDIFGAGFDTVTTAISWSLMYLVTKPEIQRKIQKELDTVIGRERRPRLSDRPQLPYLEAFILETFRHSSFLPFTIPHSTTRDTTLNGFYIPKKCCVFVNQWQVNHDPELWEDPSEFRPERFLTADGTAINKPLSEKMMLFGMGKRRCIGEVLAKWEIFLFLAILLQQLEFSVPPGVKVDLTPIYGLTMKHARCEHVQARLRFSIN

human CYP2C19 [4] = target: T1, human CYP2C19
CYP3A4 = CYP3A4 (Homo sapiens, UniProt P08684)
CYP3A4, sequence (P08684 whole entry): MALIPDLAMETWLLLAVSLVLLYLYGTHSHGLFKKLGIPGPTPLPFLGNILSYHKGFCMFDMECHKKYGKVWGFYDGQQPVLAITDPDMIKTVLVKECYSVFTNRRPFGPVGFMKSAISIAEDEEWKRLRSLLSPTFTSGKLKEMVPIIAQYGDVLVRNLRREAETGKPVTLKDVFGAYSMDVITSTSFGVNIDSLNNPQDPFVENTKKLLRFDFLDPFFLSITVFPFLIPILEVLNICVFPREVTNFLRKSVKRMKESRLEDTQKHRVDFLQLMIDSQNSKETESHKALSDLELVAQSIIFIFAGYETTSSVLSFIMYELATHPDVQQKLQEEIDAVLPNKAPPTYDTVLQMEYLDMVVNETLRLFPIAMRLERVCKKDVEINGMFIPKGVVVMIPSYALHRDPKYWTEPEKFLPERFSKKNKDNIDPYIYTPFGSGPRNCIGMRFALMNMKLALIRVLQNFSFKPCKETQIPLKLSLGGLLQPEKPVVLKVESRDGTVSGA

human CYP2D6 = human CYP2D6 (Homo sapiens, UniProt P10635)
human CYP2D6, sequence (P10635 whole entry): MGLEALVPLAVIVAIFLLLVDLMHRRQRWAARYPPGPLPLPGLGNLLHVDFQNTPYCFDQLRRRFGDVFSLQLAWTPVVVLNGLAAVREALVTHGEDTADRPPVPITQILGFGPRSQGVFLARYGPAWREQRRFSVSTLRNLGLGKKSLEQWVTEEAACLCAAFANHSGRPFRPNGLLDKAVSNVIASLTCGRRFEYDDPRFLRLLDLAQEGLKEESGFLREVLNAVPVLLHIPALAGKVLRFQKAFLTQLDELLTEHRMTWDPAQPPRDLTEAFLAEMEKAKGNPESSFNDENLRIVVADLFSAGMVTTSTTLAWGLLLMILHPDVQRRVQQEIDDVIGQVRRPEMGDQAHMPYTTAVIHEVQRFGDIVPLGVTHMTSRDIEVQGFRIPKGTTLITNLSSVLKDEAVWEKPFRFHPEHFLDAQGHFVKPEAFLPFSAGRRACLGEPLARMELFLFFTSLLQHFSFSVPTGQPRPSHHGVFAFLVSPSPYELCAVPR

human CYP1A2 [5] = target: T3, human CYP1A2
human CYP2C9 [6] = target: T2, human CYP2C9; conditions: human
[7] = CYP1A2 AC50 (half-maximal activity concentration)
[8] = CYP2C19 AC50 (half-maximal activity concentration)
[9] = CYP2C9 AC50 (half-maximal activity concentration)
[10] = CYP2C9 IC50 (half-maximal inhibitory concentration)
[11] = CYP1A2 IC50 (half-maximal inhibitory concentration)
[12] = CYP2C19 IC50 (half-maximal inhibitory concentration)

T2 sequence (P11712 whole entry): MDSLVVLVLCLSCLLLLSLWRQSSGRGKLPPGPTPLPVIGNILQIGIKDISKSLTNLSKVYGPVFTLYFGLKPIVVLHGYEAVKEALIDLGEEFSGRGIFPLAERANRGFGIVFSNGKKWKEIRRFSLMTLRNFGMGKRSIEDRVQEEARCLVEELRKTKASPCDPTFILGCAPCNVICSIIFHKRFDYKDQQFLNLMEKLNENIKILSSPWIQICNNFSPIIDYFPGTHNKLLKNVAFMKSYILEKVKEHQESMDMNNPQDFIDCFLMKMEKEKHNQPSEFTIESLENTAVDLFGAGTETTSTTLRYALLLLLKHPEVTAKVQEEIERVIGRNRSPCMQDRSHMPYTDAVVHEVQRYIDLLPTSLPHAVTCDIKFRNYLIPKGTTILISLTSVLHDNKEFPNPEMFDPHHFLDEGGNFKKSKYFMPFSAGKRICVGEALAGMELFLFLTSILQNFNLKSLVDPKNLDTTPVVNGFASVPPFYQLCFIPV
T1 sequence (P33261 whole entry): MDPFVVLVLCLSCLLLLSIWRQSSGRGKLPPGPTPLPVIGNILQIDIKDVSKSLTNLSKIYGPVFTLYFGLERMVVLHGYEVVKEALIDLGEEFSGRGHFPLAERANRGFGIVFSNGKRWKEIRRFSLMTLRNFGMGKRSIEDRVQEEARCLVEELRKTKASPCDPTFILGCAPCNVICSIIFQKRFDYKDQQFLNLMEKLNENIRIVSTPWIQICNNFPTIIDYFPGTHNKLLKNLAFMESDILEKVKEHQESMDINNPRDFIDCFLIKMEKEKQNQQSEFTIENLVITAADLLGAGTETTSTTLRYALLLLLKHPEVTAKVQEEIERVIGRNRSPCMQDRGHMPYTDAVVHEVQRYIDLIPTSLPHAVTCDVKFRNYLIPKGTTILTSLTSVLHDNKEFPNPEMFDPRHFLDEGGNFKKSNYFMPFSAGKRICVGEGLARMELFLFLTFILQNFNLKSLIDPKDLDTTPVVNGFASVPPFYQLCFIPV

Question: What does the source list for `O=C1c2ccccc2CCc2ccccc21` [Dibenzosuberone]?
Answer: AC50 (human CYP2C19 [1]): 8.39 µM; AC50 (human CYP2C9 [2]): 33.4 µM; AC50 (human CYP1A2 [3]): 1.58 µM

Question: For `CCOC(=O)c1ccccc1C(=O)OCC` [Diethyl phthalate], which AC50 (human CYP1A2 [3]; [7]) is on record?
Answer: 3.24 µM

Question: `C[C@]12CC[C@@H]3c4ccc(O)cc4CC[C@H]3[C@@H]1CC[C@@H]2OC(=O)CCC1CCCC1` [Estradiol cypionate] was tested. Which AC50 (human CYP2C19 [1]; [8]) did it give?
Answer: 26 µM

Question: What about the AC50 (human CYP2C9 [2]; [9]) of the same compound?
Answer: 16.1 µM

Question: And the AC50 (human CYP1A2 [3]; [7])?
Answer: 16.6 µM

Question: With `CC(C)OC(=O)C(C)(C)Oc1ccc(C(=O)c2ccc(Cl)cc2)cc1` [Fenofibrate] as the compound, how does the AC50 (human CYP2C9 [2]; [9]) read?
Answer: 3.17 µM

Question: What about the AC50 (human CYP1A2 [3]; [7]) of the same compound?
Answer: 19.9 µM

Question: How did the AC50 (human CYP2C9 [2]; [9]) turn out when `O=C(O)Cc1sc(-c2ccccc2)nc1-c1ccc(Cl)cc1` [Fentiazac] was run?
Answer: 6.24 µM

Question: And the AC50 (human CYP1A2 [3]; [7])?
Answer: 24 µM

Question: Which IC50 (human CYP2C9 [2]; [10]) does the source give for `CNCCC(Oc1ccc(C(F)(F)F)cc1)c1ccccc1` (centres unmarked) [Fluoxetine hydrochloride] here?
Answer: 34.2 µM

Question: And the IC50 (human CYP1A2 [3]; [11])?
Answer: 20.9 µM

Question: Which “CYP2C19 AC50 (half-maximal activity concentration)” value (“CYP2C19 AC50” below) (human CYP2C19 [4]) does the source give for `NS(=O)(=O)c1cc2c(cc1Cl)NCNS2(=O)=O` [Hydrochlorothiazide] here?
Answer: Inactive

Question: And the “CYP3A4 AC50 (half-maximal activity concentration)” value (“CYP3A4 AC50” below) (CYP3A4)?
Answer: Inactive

Question: And the “CYP2D6 AC50 (half-maximal activity concentration)” value (shortened to “CYP2D6 AC50”) (human CYP2D6)?
Answer: Inactive

Question: Which results are given for `CC(C)Oc1ccc2c(=O)c(-c3ccccc3)coc2c1` [Ipriflavone]?
Answer: AC50 (human CYP2C9 [2]; [9]): 20.1 µM; AC50 (human CYP1A2 [3]; [7]): 11.6 µM

Question: `Cc1cc2c(cc1S(N)(=O)=O)S(=O)(=O)CCC2` [Meticrane] was tested. Which “CYP2C19 AC50” value (human CYP2C19 [4]) did it give?
Answer: Inactive

Question: And the AC50 (human CYP2C9 [2])?
Answer: 8.15 ± 1.47 µM

Question: What about the “CYP1A2 AC50 (half-maximal activity concentration)” value (human CYP1A2 [5]) of the same compound?
Answer: Inactive

Question: And the “CYP3A4 AC50” value (CYP3A4)?
Answer: Inactive

Question: What about the “CYP2D6 AC50” value (human CYP2D6) of the same compound?
Answer: Inactive

Question: `CCOc1cc(N)c(Cl)cc1C(=O)NCC1CN(Cc2ccc(F)cc2)CCO1` (centres unmarked) [Mosapride citrate] was tested. Which IC50 (human CYP2C19 [1]; [12]) did it give?
Answer: 9 µM

Question: What about the IC50 (human CYP1A2 [3]; [11]) of the same compound?
Answer: 1.14 µM

Question: For `COc1ccnc2c1CCCCC2[S+]([O-])c1nc2ccccc2[nH]1` (centres unmarked) [Nepaprazole], which IC50 (human CYP2C19 [1]) is on record?
Answer: 8.96 ± 4.72 µM

Question: What about the IC50 (human CYP2C9 [2]) of the same compound?
Answer: 13.9 ± 1.59 µM

Question: What about the IC50 (human CYP1A2 [3]) of the same compound?
Answer: 14.9 ± 0.97 µM

Question: How did the IC50 (human CYP2C19 [1]) turn out when `O=C(NOCC1CC1)c1ccc(F)c(F)c1Nc1ccc(I)cc1Cl` [PD-184352] was run?
Answer: 0.39 ± 0.13 µM

Question: And the IC50 (human CYP2C9 [2])?
Answer: 0.68 ± 0.17 µM

Question: What about the IC50 (human CYP1A2 [3]) of the same compound?
Answer: 14.4 ± 0.97 µM

Question: What does the source list for `CCC(=O)c1ccc(O)cc1` [Paroxypropione]?
Answer: CYP2C19 AC50 (half-maximal activity concentration) (human CYP2C19 [4]): Inactive; AC50 (human CYP2C9 [2]; [9]): 15.6 µM; CYP1A2 AC50 (half-maximal activity concentration) (human CYP1A2 [5]): Inconclusive inhibitor; CYP3A4 AC50 (half-maximal activity concentration) (CYP3A4): Inactive; CYP2D6 AC50 (half-maximal activity concentration) (human CYP2D6): Inactive

Question: Which results are given for `CCCOC(=O)c1cncn1C(C)c1ccccc1` (centres unmarked) [Propoxate]?
Answer: IC50 (human CYP2C19 [1]; [12]): 3.09 µM; IC50 (human CYP2C9 [2]; [10]): 13.3 µM; IC50 (human CYP1A2 [3]; [11]): 18.9 µM

Question: For `Cc1cc(C)nc(NS(=O)(=O)c2ccc(N)cc2)n1` [Sulfamethazine], which “CYP2C19 AC50” value (human CYP2C19 [4]) is on record?
Answer: Inactive

Question: And the AC50 (human CYP2C9 [2]; [9])?
Answer: 54.8 µM

Question: What about the “CYP1A2 AC50 (half-maximal activity concentration)” value (human CYP1A2 [5]) of the same compound?
Answer: Inconclusive inhibitor

Question: What about the “CYP3A4 AC50” value (CYP3A4) of the same compound?
Answer: Inactive

Question: What about the “CYP2D6 AC50” value (human CYP2D6) of the same compound?
Answer: Inactive

Question: What does the source list for `O=C1OC(OC(=O)c2cccnc2Nc2cccc(C(F)(F)F)c2)c2ccccc21` (centres unmarked) [Talniflumate]?
Answer: AC50 (human CYP2C9 [2]): 5.56 ± 2.56 µM; AC50 (human CYP1A2 [3]): 10 ± 5.3 µM

Question: What does the source list for `CCCCCNC(=N)N/N=C/c1c[nH]c2ccc(OC)cc12` [Tegaserod maleate]?
Answer: AC50 (human CYP2C9 [2]): 33.3 ± 14 µM; AC50 (human CYP1A2 [3]): 4.12 ± 0.93 µM

Question: How did the AC50 (human CYP2C19 [1]; [8]) turn out when `CN(C)C(=S)SC(=S)N(C)C` [Tetramethylthiuram monosulfide] was run?
Answer: 22.8 µM

Question: And the AC50 (human CYP2C9 [2]; [9])?
Answer: 24.3 µM

Question: What about the AC50 (human CYP1A2 [3]; [7]) of the same compound?
Answer: 41.9 µM

Question: How did the AC50 (human CYP2C9 [2]; [9]) turn out when `Cc1c(Cl)cccc1Nc1ccccc1C(=O)O` [Tolfenamic acid] was run?
Answer: 21 µM

Question: And the AC50 (human CYP1A2 [3]; [7])?
Answer: 34.8 µM

Question: What does the source list for `Clc1ccc(C(c2ccc(Cl)cc2)C(Cl)(Cl)Cl)cc1` [p,p'-DDT]?
Answer: CYP2C9 Efficacy (in parenthesis) (human CYP2C9 [6]): 4.33 ± 1.82 (-100 ± 9) %; IC50 (human CYP2C19 [1]; [12]): 0.04 µM; CYP2C19 Efficacy (in parenthesis) (human CYP2C19 [4]; human): 0.04 ± 0.02 (-132 ± 4) %; IC50 (human CYP2C9 [2]; [10]): 4.33 µM; CYP1A2 Efficacy (in parenthesis) (human CYP1A2 [5]; human): 9.36 ± 3.19 (-74 ± 16) %; IC50 (human CYP1A2 [3]; [11]): 9.36 µM

Question: `Fc1ccc([C@@H]2CCNC[C@H]2COc2ccc3c(c2)OCO3)cc1` [paroxetine, reference compound] was tested. Which IC50 (human CYP1A2 [3]; [11]) did it give?
Answer: 15.2 µM

Question: Which IC50 (human CYP1A2 [3]; IC50 CYP1A2 assay) does the source give for `c1ccc2[nH]c(-c3cscn3)nc2c1` [thiabendazole, reference compound] here?
Answer: 2.1 µM

Question: `CC(c1cc2ccccc2s1)N(O)C(N)=O` (centres unmarked) [zileuton, reference compound] was tested. Which IC50 (human CYP1A2 [3]) did it give?
Answer: 5.3 µM
